“Also recorded” adds a separate entry of the source. Where two headings read alike, the source gives them in different places.
Legend:
[1] = target: T1, horse serum BuChE (eqBuChE) (Equus caballus, UniProt P81908); experiment: biochemical; conditions: Ellman's method, 25°C, mean ± SEM of three experiments
T1 construct: horse serum BuChE (eqBuChE, Sigma-Aldrich); purchased Sigma-Aldrich; host or cells: horse serum
Method: (§1) This method is based on the reaction of acetylthiocholine with 5,5′´-dithio-bis-(2-nitrobenzoic) acid (DTNB) to yield the colored product.
(§2) AChE from E. electricus, and horse serum BuChE (eqBuChE, Sigma-Aldrich) 5,5-Dithiobis-(2-nitrobenzoic acid) (DTNB), and acetylthiocholine iodide (ATC) were purchased from Sigma Aldrich. […] In this procedure, five different concentrations of each compound were used at 25°C. […] For the in-vitro BuChE assay similar method has been used.

[2] = target: T2, AChE from E. electricus (Electrophorus electricus, UniProt O42275); experiment: biochemical
T2 construct: purchased Sigma Aldrich
T2 sequence (O42275 24-633): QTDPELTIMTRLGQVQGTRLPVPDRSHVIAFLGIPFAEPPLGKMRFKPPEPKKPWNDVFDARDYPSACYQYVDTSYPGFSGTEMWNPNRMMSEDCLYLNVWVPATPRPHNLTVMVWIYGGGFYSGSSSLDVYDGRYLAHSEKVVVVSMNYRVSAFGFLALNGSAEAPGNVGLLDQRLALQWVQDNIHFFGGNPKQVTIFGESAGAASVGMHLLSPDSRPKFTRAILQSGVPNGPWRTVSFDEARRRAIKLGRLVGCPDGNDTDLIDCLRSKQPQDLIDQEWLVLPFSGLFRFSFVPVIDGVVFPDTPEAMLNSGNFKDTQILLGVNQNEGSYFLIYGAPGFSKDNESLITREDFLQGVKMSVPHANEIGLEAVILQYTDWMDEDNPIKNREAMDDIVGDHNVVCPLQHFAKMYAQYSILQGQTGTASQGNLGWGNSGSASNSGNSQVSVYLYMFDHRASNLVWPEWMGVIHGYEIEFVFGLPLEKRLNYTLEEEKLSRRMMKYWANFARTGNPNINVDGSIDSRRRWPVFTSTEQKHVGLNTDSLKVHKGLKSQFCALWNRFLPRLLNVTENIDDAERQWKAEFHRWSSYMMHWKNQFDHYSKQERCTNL
Method: as §1, §2

[3] = Cell viability assay (MTT) in PC12 cells; assay type: cell-based; conditions: rat
Method: Safety is an important factor for CNS agents. In order to evaluate the cytotoxic effect of selected compounds 5a, 5f, 5h, 5i, and 5l, the in-vitro cell viability assay was investigated on the PC12 cell line using the MTT (3-(4,5-dimethylthiazol-2-yl)-2,5-diphenyltetrazolium bromide) assay. The PC12 cells were incubated with varying concentrations (0.01–100 μM) of the test compounds for 24 h. […] The results are expressed as the percentage of viable cells.
In order to evaluate cell viability of 5a, 5f, 5h, 5i, and 5l, the 3-(4,5-dimethylthiazol-2-yl)-2,5-diphenyl tetrazolium bromide (MTT) assay was performed using PC12 cell line. Cells were seeded in 96-well plates at a density of 5,000 cells/well for 24 h, and then cells were treated with tested compounds and glutamate (5 mM) and incubated at 37°C for 24 h. After that, the medium was removed and 20 μl of the MTT reagent (5 mg/ml) was added and incubated at 37 °C for 4 h. Then, the medium was replaced with 150 μl DMSO to solve formazan crystals. The absorbance was recorded by microplate reader apparatus (Biotek, Winooski, VT, United States) at 570 nm. The assay was performed in three independent experiments and triplicate.

[4] = target: T3, Aβ1–42 and human recombinant AChE (Homo sapiens, UniProt P22303); experiment: Inhibition of AChE-induced Aβ1–42 aggregation (thioflavin T assay); assay type: biochemical; conditions: read-out: Inhibition of Aβ aggregation (%) AChE-induced
T3 construct: Aβ1–42 (Sigma A9810); purchased Sigma C1682 (AChE); A9810 (Aβ1–42)
T3 sequence (P22303 32-614): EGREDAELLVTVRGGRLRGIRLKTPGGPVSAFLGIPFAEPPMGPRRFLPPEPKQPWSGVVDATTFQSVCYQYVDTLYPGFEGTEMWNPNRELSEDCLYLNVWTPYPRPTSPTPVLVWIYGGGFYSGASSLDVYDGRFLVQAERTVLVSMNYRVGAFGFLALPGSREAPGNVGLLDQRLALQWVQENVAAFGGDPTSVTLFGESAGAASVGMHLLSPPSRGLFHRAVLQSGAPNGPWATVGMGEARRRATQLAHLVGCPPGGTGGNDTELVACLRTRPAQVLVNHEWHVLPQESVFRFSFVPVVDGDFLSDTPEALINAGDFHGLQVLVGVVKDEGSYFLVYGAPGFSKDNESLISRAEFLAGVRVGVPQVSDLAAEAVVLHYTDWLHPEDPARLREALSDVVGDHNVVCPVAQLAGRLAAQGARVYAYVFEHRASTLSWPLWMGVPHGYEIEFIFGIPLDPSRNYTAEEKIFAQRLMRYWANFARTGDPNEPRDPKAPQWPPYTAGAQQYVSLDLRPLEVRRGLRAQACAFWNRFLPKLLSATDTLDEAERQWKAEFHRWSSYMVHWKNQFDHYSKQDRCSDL
Method: (§3) For this purpose, we used the thioflavin T (ThT) assay.
(§4) Aβ1–42 (Sigma A9810) 50 μM was dissolved in ammonium hydroxide (1% v/v) for pre-fibrillation and incubated for 72 h at 37°C. […] Next, 50 μl of thioflavin T (ThT, 200 μM) containing 50 mM glycine-NaOH buffer (pH 8.5) was added. […] The aggregation inhibition of the tested compounds was calculated on AChE or self-induced Aβ-aggregation according to the equation (1−IFi/IFc) × 100, where IFi and IFc are the fluorescence intensities in the presence of inhibitors and in the absence of inhibitors, respectively.

[5] = target: T4, Aβ1–42 (Homo sapiens, UniProt P05067); experiment: Inhibition of self-induced Aβ1–42 aggregation (thioflavin T assay); assay type: biochemical; conditions: for inhibition at 10 µM: read-out: Inhibition of Aβ aggregation (%) Self-induced; for Effectiveness relative to donepezil in inhibition of self-induced Aβ aggregation: 10 μM
T4 construct: Aβ1–42 (Sigma A9810); purchased Sigma A9810
T4 sequence (P05067 672-713 limits assumed): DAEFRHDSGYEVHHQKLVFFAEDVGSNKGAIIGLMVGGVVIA
Method: as §3, §4

[6] = target: AChE (Electrophorus electricus, UniProt O42275); experiment: Kinetics study of AChE inhibition (Lineweaver-Burk plots); assay type: biochemical; conditions: inhibitor at 0.32, 0.64, 1.27 μM, substrate ATCh
Sequence of AChE (O42275 24-633): as the sequence (O42275 24-633) above
Method: The inhibition model of acetylcholinesterase can be categorized into irreversible-type inhibition and reversible-type inhibition. […]. The type of inhibition can be concluded with a graphical analysis of the Lineweaver-Burk reciprocal plots ([Baharloo et al., 2015]).
[…]. The experiment was assayed in triplicate.

[7] = compound at 10 μM, ThT assay, mean ± SEM of three experiments
[8] = Ellman's method, 25°C, mean ± SEM of three experiments, read-out: IC50 (μM) AChE

T1 sequence (P81908 whole entry): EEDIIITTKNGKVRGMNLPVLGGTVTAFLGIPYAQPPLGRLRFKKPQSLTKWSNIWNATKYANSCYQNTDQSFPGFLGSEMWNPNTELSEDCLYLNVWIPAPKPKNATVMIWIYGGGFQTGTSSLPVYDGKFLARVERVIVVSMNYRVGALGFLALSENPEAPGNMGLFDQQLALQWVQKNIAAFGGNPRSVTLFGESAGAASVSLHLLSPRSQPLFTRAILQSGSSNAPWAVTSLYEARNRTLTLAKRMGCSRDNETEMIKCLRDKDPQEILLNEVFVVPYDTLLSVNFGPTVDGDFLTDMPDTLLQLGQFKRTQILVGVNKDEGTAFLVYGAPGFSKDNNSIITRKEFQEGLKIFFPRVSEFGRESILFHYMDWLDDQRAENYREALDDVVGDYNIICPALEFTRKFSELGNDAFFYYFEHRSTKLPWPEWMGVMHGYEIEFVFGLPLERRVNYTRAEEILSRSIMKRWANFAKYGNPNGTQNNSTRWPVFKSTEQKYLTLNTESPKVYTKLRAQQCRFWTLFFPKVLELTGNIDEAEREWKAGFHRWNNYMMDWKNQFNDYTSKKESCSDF

Nc1c(-c2cc[n+](Cc3ccccc3)cc2)oc2ccccc12 [5a, 4-(3-Aminobenzofuran-2-yl)-1-benzylpyridin-1-ium chloride]
IC50 [1]: 0.82 ± 0.07 µM
IC50 [2]: 0.81 ± 0.02 µM
viability at 24 h [3]: 85.9 ± 1.5%
inhibition at 100 µM [4]: 22.4 ± 1.6%
inhibition at 10 µM [5, 7]: 17.6 ± 3.8%

Cc1ccccc1C[n+]1ccc(-c2oc3ccccc3c2N)cc1 [5b, 4-(3-Aminobenzofuran-2-yl)-1-(2-methylbenzyl) pyridin-1-ium chloride]
IC50 [1]: 17.4 ± 2.45 µM
IC50 [2, 8]: 3.29 ± 0.01 µM

Cc1cccc(C[n+]2ccc(-c3oc4ccccc4c3N)cc2)c1 [5c, 4-(3-Aminobenzofuran-2-yl)-1-(3-methylbenzyl) pyridin-1-ium chloride]
IC50 [1]: 12.9 ± 3.56 µM
IC50 [2, 8]: 3.32 ± 0.04 µM

Cc1ccc(C[n+]2ccc(-c3oc4ccccc4c3N)cc2)cc1 [5d, 4-(3-Aminobenzofuran-2-yl)-1-(4-methylbenzyl) pyridin-1-ium chloride]
IC50 [1]: 25.3 ± 1.91 µM
IC50 [2, 8]: 29.3 ± 0.82 µM

COc1cccc(C[n+]2ccc(-c3oc4ccccc4c3N)cc2)c1 [5e, 4-(3-Aminobenzofuran-2-yl)-1-(3-methoxybenzyl) pyridin-1-ium chloride]
IC50 [1]: > 100 µM
IC50 [2, 8]: 81.1 ± 1.61 µM

Nc1c(-c2cc[n+](Cc3ccccc3F)cc2)oc2ccccc12.[Cl-] [5f, 4-(3-Aminobenzofuran-2-yl)-1-(2-fluorobenzyl) pyridin-1-ium chloride]
IC50 [1]: 0.55 ± 0.07 µM
IC50 [2]: 0.64 ± 0.04 µM
viability at 24 h [3]: 86.4 ± 2.6%
inhibition at 100 µM [4]: 30.1 ± 1.9%
Effectiveness relative to donepezil in inhibition of self-induced Aβ aggregation ([5]; ThT assay): about 2 fold
inhibition at 10 µM [5, 7]: 29.8 ± 1.8%
Type of inhibition on AChE [6]: mixed-type inhibition; also recorded: mixed-type inhibitory pattern

Nc1c(-c2cc[n+](Cc3cccc(F)c3)cc2)oc2ccccc12 [5g, 4-(3-Aminobenzofuran-2-yl)-1-(3-fluorobenzyl) pyridin-1-ium chloride]
IC50 [1]: 2.89 ± 0.42 µM
IC50 [2, 8]: 1.68 ± 0.02 µM

Nc1c(-c2cc[n+](Cc3ccc(F)cc3)cc2)oc2ccccc12.[Cl-] [5h, 4-(3-Aminobenzofuran-2-yl)-1-(4-fluorobenzyl) pyridin-1-ium chloride]
IC50 [1]: 5.05 ± 0.73 µM
IC50 [2]: 0.88 ± 0.04 µM
viability at 24 h [3]: 88.2 ± 2.4%
inhibition at 100 µM [4]: 35.6 ± 1.5%
Effectiveness relative to donepezil in inhibition of self-induced Aβ aggregation ([5]; ThT assay): about 2 fold
inhibition at 10 µM [5, 7]: 38.8 ± 2.8%

Nc1c(-c2cc[n+](Cc3ccccc3Cl)cc2)oc2ccccc12 [5i, 4-(3-Aminobenzofuran-2-yl)-1-(2-chlorobenzyl) pyridin-1-ium chloride]
IC50 [1]: 0.99 ± 0.05 µM
IC50 [2]: 0.7 ± 0.01 µM
viability at 24 h [3]: 90.2 ± 4.1%
inhibition at 100 µM [4]: 26.5 ± 3.8%
inhibition at 10 µM [5, 7]: 24.8 ± 1.5%

Nc1c(-c2cc[n+](Cc3cccc(Cl)c3)cc2)oc2ccccc12 [5j, 4-(3-Aminobenzofuran-2-yl)-1-(3-chlorobenzyl) pyridin-1-ium chloride]
IC50 [1]: 18.8 ± 1.11 µM
IC50 [2, 8]: 2.99 ± 0.03 µM

Nc1c(-c2cc[n+](Cc3ccc(Cl)cc3)cc2)oc2ccccc12 [5k, 4-(3-Aminobenzofuran-2-yl)-1-(4-chlorobenzyl) pyridin-1-ium chloride]
IC50 [1]: 31.2 ± 2.56 µM
IC50 [2, 8]: 16.6 ± 0.52 µM

Nc1c(-c2cc[n+](Cc3ccccc3Br)cc2)oc2ccccc12 [5l, 4-(3-Aminobenzofuran-2-yl)-1-(2-bromobenzyl) pyridin-1-ium chloride]
IC50 [1]: 10.5 ± 0.19 µM
IC50 [2]: 1.34 ± 0.01 µM
viability at 24 h [3]: 87.1 ± 2.9%
inhibition at 100 µM [4]: 22.4 ± 2.3%
inhibition at 10 µM [5, 7]: 25.7 ± 2.7%

Nc1c(-c2cc[n+](Cc3cccc(Br)c3)cc2)oc2ccccc12 [5m, 4-(3-Aminobenzofuran-2-yl)-1-(3-bromobenzyl) pyridin-1-ium chloride]
IC50 [1]: 13.9 ± 1.2 µM
IC50 [2, 8]: 4.47 ± 0.02 µM

Nc1c(-c2cc[n+](Cc3ccc(Br)cc3)cc2)oc2ccccc12 [5n, 4-(3-Aminobenzofuran-2-yl)-1-(4-bromobenzyl) pyridin-1-ium chloride]
IC50 [1]: 22.6 ± 3.33 µM
IC50 [2, 8]: 15.8 ± 0.91 µM

Nc1c(-c2cc[n+](Cc3ccccc3[N+](=O)[O-])cc2)oc2ccccc12 [5o, 4-(3-Aminobenzofuran-2-yl)-1-(2-nitrobenzyl) pyridin-1-ium chloride]
IC50 [1]: 28.63 ± 0.13 µM
IC50 [2, 8]: 7.84 ± 0.05 µM

Nc1c(-c2cc[n+](Cc3ccc([N+](=O)[O-])cc3)cc2)oc2ccccc12 [5p, 4-(3-Aminobenzofuran-2-yl)-1-(4-nitrobenzyl) pyridin-1-ium chloride]
IC50 [1]: 28.3 ± 0.48 µM
IC50 [2, 8]: 20.6 ± 0.8 µM

COc1cc2c(cc1OC)C(=O)C(CC1CCN(Cc3ccccc3)CC1)C2 (stereo not drawn) [Donepezil, reference compound]
inhibition at 10 µM [5]: 14.9 ± 2.5%
